Measured values published in patent US8192962B2, “Processes for detecting toxic substances” (Daikin Industries, Ltd., priority 2001, dated 2012).

Tested on: Transport facilitation protein genes
Assay: DNA chip mRNA expression in yeast, transport facilitation protein genes (Table 5)
Assay type: cell-based, Saccharomyces cerevisiae S288C
In short: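 Measured as treated-to-untreated fluorescence ratio on a full-genome yeast DNA chip. Cells (S288C, YPD, 25° C.) were exposed in log phase for two hours to one chemical, dosed to curb growth without killing.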

[Cl][Hg][Cl] [(3), HgCl2]
The level of expressed mRNA in the presence of chemical substance/The level of expressed mRNA in the absence of chemical substance (yeast gene YBL030C): 4.5
The level of expressed mRNA in the presence of chemical substance/The level of expressed mRNA in the absence of chemical substance (yeast gene YBL099W): 3.1
The level of expressed mRNA in the presence of chemical substance/The level of expressed mRNA in the absence of chemical substance (yeast gene YBR052C): 1.5
The level of expressed mRNA in the presence of chemical substance/The level of expressed mRNA in the absence of chemical substance (yeast gene YBR068C): 1.9
The level of expressed mRNA in the presence of chemical substance/The level of expressed mRNA in the absence of chemical substance (yeast gene YBR127C): 2.2
The level of expressed mRNA in the presence of chemical substance/The level of expressed mRNA in the absence of chemical substance (yeast gene YBR132C): 2.4
The level of expressed mRNA in the presence of chemical substance/The level of expressed mRNA in the absence of chemical substance (yeast gene YBR207W): 0.8
The level of expressed mRNA in the presence of chemical substance/The level of expressed mRNA in the absence of chemical substance (yeast gene YBR293W): 1.0
The level of expressed mRNA in the presence of chemical substance/The level of expressed mRNA in the absence of chemical substance (yeast gene YBR294W): 0.9
The level of expressed mRNA in the presence of chemical substance/The level of expressed mRNA in the absence of chemical substance (yeast gene YBR295W): 3.3
The level of expressed mRNA in the presence of chemical substance/The level of expressed mRNA in the absence of chemical substance (yeast gene YBR298C): 1.6
The level of expressed mRNA in the presence of chemical substance/The level of expressed mRNA in the absence of chemical substance (yeast gene YCL025C): 2.5
The level of expressed mRNA in the presence of chemical substance/The level of expressed mRNA in the absence of chemical substance (yeast gene YCL038C): 1.4
The level of expressed mRNA in the presence of chemical substance/The level of expressed mRNA in the absence of chemical substance (yeast gene YCR024C-A): 3.2
The level of expressed mRNA in the presence of chemical substance/The level of expressed mRNA in the absence of chemical substance (yeast gene YCR037C): 0.8
The level of expressed mRNA in the presence of chemical substance/The level of expressed mRNA in the absence of chemical substance (yeast gene YCR098C): 1.7
The level of expressed mRNA in the presence of chemical substance/The level of expressed mRNA in the absence of chemical substance (yeast gene YDL128W): 2.1
The level of expressed mRNA in the presence of chemical substance/The level of expressed mRNA in the absence of chemical substance (yeast gene YDL198C): 2.1
The level of expressed mRNA in the presence of chemical substance/The level of expressed mRNA in the absence of chemical substance (yeast gene YDL210W): 2.7
The level of expressed mRNA in the presence of chemical substance/The level of expressed mRNA in the absence of chemical substance (yeast gene YDL245C): 1.6
The level of expressed mRNA in the presence of chemical substance/The level of expressed mRNA in the absence of chemical substance (yeast gene YDR038C): 3.1
The level of expressed mRNA in the presence of chemical substance/The level of expressed mRNA in the absence of chemical substance (yeast gene YDR039C): 3.2
The level of expressed mRNA in the presence of chemical substance/The level of expressed mRNA in the absence of chemical substance (yeast gene YDR086C): 1.2
The level of expressed mRNA in the presence of chemical substance/The level of expressed mRNA in the absence of chemical substance (yeast gene YDR270W): 1.4
The level of expressed mRNA in the presence of chemical substance/The level of expressed mRNA in the absence of chemical substance (yeast gene YDR298C): 2.6
The level of expressed mRNA in the presence of chemical substance/The level of expressed mRNA in the absence of chemical substance (yeast gene YDR342C): 12.2
The level of expressed mRNA in the presence of chemical substance/The level of expressed mRNA in the absence of chemical substance (yeast gene YDR343C): 20.6
The level of expressed mRNA in the presence of chemical substance/The level of expressed mRNA in the absence of chemical substance (yeast gene YDR345C): 5.6
The level of expressed mRNA in the presence of chemical substance/The level of expressed mRNA in the absence of chemical substance (yeast gene YDR387C): 1.2
The level of expressed mRNA in the presence of chemical substance/The level of expressed mRNA in the absence of chemical substance (yeast gene YDR497C): 0.6
The level of expressed mRNA in the presence of chemical substance/The level of expressed mRNA in the absence of chemical substance (yeast gene YEL027W): 3.4
The level of expressed mRNA in the presence of chemical substance/The level of expressed mRNA in the absence of chemical substance (yeast gene YEL063C): 2.4
The level of expressed mRNA in the presence of chemical substance/The level of expressed mRNA in the absence of chemical substance (yeast gene YEL065W): 1.2
The level of expressed mRNA in the presence of chemical substance/The level of expressed mRNA in the absence of chemical substance (yeast gene YER053C): 1.9
The level of expressed mRNA in the presence of chemical substance/The level of expressed mRNA in the absence of chemical substance (yeast gene YFL011W): 3.7
The level of expressed mRNA in the presence of chemical substance/The level of expressed mRNA in the absence of chemical substance (yeast gene YFL041W): 1.4
The level of expressed mRNA in the presence of chemical substance/The level of expressed mRNA in the absence of chemical substance (yeast gene YFL050C): 1.1
The level of expressed mRNA in the presence of chemical substance/The level of expressed mRNA in the absence of chemical substance (yeast gene YFL054C): 1.4
The level of expressed mRNA in the presence of chemical substance/The level of expressed mRNA in the absence of chemical substance (yeast gene YGL006W): 1.3
The level of expressed mRNA in the presence of chemical substance/The level of expressed mRNA in the absence of chemical substance (yeast gene YGL008C): 3.1
The level of expressed mRNA in the presence of chemical substance/The level of expressed mRNA in the absence of chemical substance (yeast gene YGL104C): 2.1
The level of expressed mRNA in the presence of chemical substance/The level of expressed mRNA in the absence of chemical substance (yeast gene YGL167C): 1.6
The level of expressed mRNA in the presence of chemical substance/The level of expressed mRNA in the absence of chemical substance (yeast gene YGL255W): 0.9
The level of expressed mRNA in the presence of chemical substance/The level of expressed mRNA in the absence of chemical substance (yeast gene YGR055W): 12.0
The level of expressed mRNA in the presence of chemical substance/The level of expressed mRNA in the absence of chemical substance (yeast gene YGR065C): 2.6
The level of expressed mRNA in the presence of chemical substance/The level of expressed mRNA in the absence of chemical substance (yeast gene YGR082W): 2.2
The level of expressed mRNA in the presence of chemical substance/The level of expressed mRNA in the absence of chemical substance (yeast gene YGR096W): 1.1
The level of expressed mRNA in the presence of chemical substance/The level of expressed mRNA in the absence of chemical substance (yeast gene YGR138C): 1.0
The level of expressed mRNA in the presence of chemical substance/The level of expressed mRNA in the absence of chemical substance (yeast gene YGR191W): 1.6
The level of expressed mRNA in the presence of chemical substance/The level of expressed mRNA in the absence of chemical substance (yeast gene YGR197C): 2.5
